Experimental data reported in ChEMBL document CHEMBL4308841, “Synthesis, in vitro antiproliferative activity, and kinase inhibitory effects of pyrazole-containing diarylureas and diarylamides” (Eur J Med Chem, 2018).

What was measured:
SF-539 = test: Growth inhibition of human SF539 cells assessed as cell growth at 0.1 uM incubated for 48 hrs by sulforhodamine B assay relative to control; type: functional; conditions: SF-539, 48 h, read-out: Activity
RPMI-8226 = test: Growth inhibition of human RPMI8226 cells assessed as cell growth at 1 uM incubated for 48 hrs by sulforhodamine B assay relative to control; type: functional; conditions: RPMI-8226, 48 h, read-out: Activity
MOLT-4 = test: Growth inhibition of human MOLT4 cells assessed as cell growth at 0.1 uM incubated for 48 hrs by sulforhodamine B assay relative to control; type: functional; conditions: MOLT-4, 48 h, read-out: Activity
HL-60(TB) = test: Growth inhibition of human HL-60(TB) cells assessed as cell growth at 100 uM incubated for 48 hrs by sulforhodamine B assay relative to control; type: functional; conditions: HL-60, 48 h, read-out: Activity
HT-29 = test: Growth inhibition of human HT-29 cells assessed as cell growth at 100 uM incubated for 48 hrs by sulforhodamine B assay relative to control; type: functional; conditions: HT-29, 48 h, read-out: Activity
A498 = test: Growth inhibition of human A498 cells incubated for 48 hrs by sulforhodamine B assay; type: functional, cell-based; conditions: A498, 48 h
SW-620 = test: Growth inhibition of human SW620 cells assessed as cell growth at 1 uM incubated for 48 hrs by sulforhodamine B assay relative to control; type: functional; conditions: SW-620, 48 h, read-out: Activity
DU-145 [1] = test: Growth inhibition of human DU145 cells incubated for 48 hrs by sulforhodamine B assay; type: functional, cell-based; conditions: DU-145, 48 h
MCF7 = test: Growth inhibition of human MCF7 cells assessed as cell growth at 0.01 uM incubated for 48 hrs by sulforhodamine B assay relative to control; type: functional; conditions: MCF7, 48 h, read-out: Activity
OVCAR-4 = test: Growth inhibition of human OVCAR4 cells assessed as cell growth at 0.1 uM incubated for 48 hrs by sulforhodamine B assay relative to control; type: functional; conditions: OVCAR-4, 48 h, read-out: Activity
SK-MEL-5 = test: Growth inhibition of human SK-MEL-5 cells assessed as cell growth at 100 uM incubated for 48 hrs by sulforhodamine B assay relative to control; type: functional; conditions: SK-MEL-5, 48 h, read-out: Activity
KM12 [2] = test: Growth inhibition of human KM12 cells assessed as cell growth at 100 uM incubated for 48 hrs by sulforhodamine B assay relative to control; type: functional; conditions: KM12, 48 h, read-out: Activity
DU-145 [3] = test: Growth inhibition of human DU145 cells assessed as cell growth at 1 uM incubated for 48 hrs by sulforhodamine B assay relative to control; type: functional; conditions: DU-145, 48 h, read-out: Activity
SNB-75 [4] = test: Growth inhibition of human SNB75 cells assessed as cell growth at 0.1 uM incubated for 48 hrs by sulforhodamine B assay relative to control; type: functional; conditions: SNB-75, 48 h, read-out: Activity
RXF 393 = test: Growth inhibition of human RXF393 cells assessed as cell growth at 0.1 uM incubated for 48 hrs by sulforhodamine B assay relative to control; type: functional; conditions: RXF 393, 48 h, read-out: Activity
ACHN = test: Growth inhibition of human ACHN cells assessed as cell growth at 0.01 uM incubated for 48 hrs by sulforhodamine B assay relative to control; type: functional; conditions: read-out: Activity
HOP-62 = test: Growth inhibition of human HOP62 cells assessed as cell growth at 0.1 uM incubated for 48 hrs by sulforhodamine B assay relative to control; type: functional; conditions: HOP-62, 48 h, read-out: Activity
KM12 [5] = test: Growth inhibition of human KM12 cells incubated for 48 hrs by sulforhodamine B assay; type: functional, cell-based; conditions: KM12, 48 h
KM12 [6] = test: Growth inhibition of human KM12 cells assessed as cell growth at 0.1 uM incubated for 48 hrs by sulforhodamine B assay relative to control; type: functional; conditions: KM12, 48 h, read-out: Activity
SK-MEL-28 [7] = test: Growth inhibition of human SK-MEL-28 cells assessed as cell growth at 0.1 uM incubated for 48 hrs by sulforhodamine B assay relative to control; type: functional; conditions: SK-MEL-28, 48 h, read-out: Activity
KM12 [8] = test: Growth inhibition of human KM12 cells assessed as cell growth at 1 uM incubated for 48 hrs by sulforhodamine B assay relative to control; type: functional; conditions: KM12, 48 h, read-out: Activity
HCT-116 = test: Growth inhibition of human HCT116 cells assessed as cell growth at 0.1 uM incubated for 48 hrs by sulforhodamine B assay relative to control; type: functional; conditions: HCT-116, 48 h, read-out: Activity
NCI/ADR-RES = test: Growth inhibition of human NCI/ADR-RES cells assessed as cell growth at 100 uM incubated for 48 hrs by sulforhodamine B assay relative to control; type: functional; conditions: read-out: Activity
SK-MEL-28 [9] = test: Growth inhibition of human SK-MEL-28 cells assessed as cell growth at 1 uM incubated for 48 hrs by sulforhodamine B assay relative to control; type: functional; conditions: SK-MEL-28, 48 h, read-out: Activity
TK-10 = test: Growth inhibition of human TK10 cells assessed as cell growth at 10 uM incubated for 48 hrs by sulforhodamine B assay relative to control; type: functional; conditions: TK-10, 48 h, read-out: Activity
786-0 = test: Growth inhibition of human 786-0 cells assessed as cell growth at 100 uM incubated for 48 hrs by sulforhodamine B assay relative to control; type: functional; conditions: 786-0, 48 h, read-out: Activity
SNB-75 [10] = test: Growth inhibition of human SNB75 cells assessed as cell growth at 100 uM incubated for 48 hrs by sulforhodamine B assay relative to control; type: functional; conditions: SNB-75, 48 h, read-out: Activity
OVCAR-3 = test: Growth inhibition of human OVCAR3 cells incubated for 48 hrs by sulforhodamine B assay; type: functional, cell-based; conditions: OVCAR-3, 48 h
SF-268 = test: Growth inhibition of human SF268 cells assessed as cell growth at 1 uM incubated for 48 hrs by sulforhodamine B assay relative to control; type: functional; conditions: SF-268, 48 h, read-out: Activity
U-251 = test: Growth inhibition of human U251 cells assessed as cell growth at 1 uM incubated for 48 hrs by sulforhodamine B assay relative to control; type: functional; conditions: U-251, 48 h, read-out: Activity
A549 = test: Growth inhibition of human A549/ATCC cells assessed as cell growth at 0.01 uM incubated for 48 hrs by sulforhodamine B assay relative to control; type: functional; conditions: A549, 48 h, read-out: Activity
[11] = read-out: LC50 (the source's name)
[12] = read-out: pLC50 (the source's name) (converted)

COc1cc(Cl)cc(-c2nn(-c3cccc(NC(=O)Nc4ccc(Cl)c(Cl)c4)c3)cc2-c2ccncc2)c1
growth at 0.1 µM (SF-539): 92%
growth at 1 µM (RPMI-8226): 39%
growth at 0.1 µM (MOLT-4): 88%
growth at 100 µM (HL-60(TB)): -30%
growth at 100 µM (HT-29): -44%
GI50 (A498; read-out: GI50): 2.52 µM
CC50 (A498; [11]): > 100 µM
TGI (A498; read-out: TGI): 90.9 µM
GI50 (A498; read-out: pGI50 (converted)): 2.51 µM
CC50 (A498; [12]): > 100 µM
TGI (A498; read-out: pTGI (converted)): 91.2 µM
growth at 1 µM (SW-620): 93%
GI50 (DU-145 [1]; read-out: GI50): 3 µM
CC50 (DU-145 [1]; [11]): > 100 µM
TGI (DU-145 [1]; read-out: TGI): > 100 µM
GI50 (DU-145 [1]; read-out: pGI50 (converted)): 3.89 µM
CC50 (DU-145 [1]; [12]): > 100 µM
TGI (DU-145 [1]; read-out: pTGI (converted)): > 100 µM
growth at 0.01 µM (MCF7): 94%
growth at 0.1 µM (OVCAR-4): 95%
growth at 100 µM (SK-MEL-5): -68%
growth at 100 µM (KM12 [2]): -17%
growth at 1 µM (DU-145 [3]): 93%
growth at 0.1 µM (SNB-75 [4]): 90%
growth at 0.1 µM (RXF 393): 101%
growth at 0.01 µM (ACHN): 102%
growth at 0.1 µM (HOP-62): 94%
GI50 (KM12 [5]; read-out: GI50): 2.02 µM
CC50 (KM12 [5]; [11]): > 100 µM
TGI (KM12 [5]; read-out: TGI): 10.8 µM
GI50 (KM12 [5]; read-out: pGI50 (converted)): 2.04 µM
CC50 (KM12 [5]; [12]): > 100 µM
TGI (KM12 [5]; read-out: pTGI (converted)): 10.7 µM
growth at 0.1 µM (KM12 [6]): 92%
growth at 0.1 µM (SK-MEL-28 [7]): 103%
growth at 1 µM (KM12 [8]): 72%
growth at 0.1 µM (HCT-116): 100%
growth at 100 µM (NCI/ADR-RES): -3%
growth at 1 µM (SK-MEL-28 [9]): 87%
growth at 10 µM (TK-10): 19.8%
growth at 100 µM (786-0): -46%
growth at 100 µM (SNB-75 [10]): -3%
IC50 (OVCAR-3): 1.56 µM
GI50 (OVCAR-3; read-out: GI50): 1.56 µM
CC50 (OVCAR-3; [11]): > 100 µM
TGI (OVCAR-3; read-out: TGI): 29.4 µM
GI50 (OVCAR-3; read-out: pGI50 (converted)): 1.55 µM
CC50 (OVCAR-3; [12]): > 100 µM
TGI (OVCAR-3; read-out: pTGI (converted)): 29.5 µM
growth at 1 µM (SF-268): 88%
growth at 1 µM (U-251): 71%
growth at 0.01 µM (A549): 99%

COc1cc(Cl)cc(-c2nn(-c3cccc(NC(=O)Nc4cccc(C(F)(F)F)c4)c3)cc2-c2ccncc2)c1
growth at 0.1 µM (SF-539): 93%
growth at 1 µM (RPMI-8226): 22%
growth at 0.1 µM (MOLT-4): 55%
growth at 100 µM (HL-60(TB)): -28%
growth at 100 µM (HT-29): -97%
GI50 (A498; read-out: GI50): 2.25 µM
CC50 (A498; [11]): > 100 µM
TGI (A498; read-out: TGI): 25.5 µM
GI50 (A498; read-out: pGI50 (converted)): 2.24 µM
CC50 (A498; [12]): > 100 µM
TGI (A498; read-out: pTGI (converted)): 25.7 µM
growth at 1 µM (SW-620): 74%
GI50 (DU-145 [1]; read-out: GI50): 2.61 µM
CC50 (DU-145 [1]; [11]): > 100 µM
TGI (DU-145 [1]; read-out: TGI): > 100 µM
GI50 (DU-145 [1]; read-out: pGI50 (converted)): 2.63 µM
CC50 (DU-145 [1]; [12]): > 100 µM
TGI (DU-145 [1]; read-out: pTGI (converted)): > 100 µM
growth at 0.01 µM (MCF7): 91%
growth at 0.1 µM (OVCAR-4): 98%
growth at 100 µM (SK-MEL-5): -99%
growth at 100 µM (KM12 [2]): -48%
growth at 1 µM (DU-145 [3]): 73%
growth at 0.1 µM (SNB-75 [4]): 55%
growth at 0.1 µM (RXF 393): 92%
growth at 0.01 µM (ACHN): 108%
growth at 0.1 µM (HOP-62): 97%
GI50 (KM12 [5]; read-out: GI50): 0.611 µM
CC50 (KM12 [5]; [11]): > 100 µM
TGI (KM12 [5]; read-out: TGI): 47 µM
GI50 (KM12 [5]; read-out: pGI50 (converted)): 6.17 µM
CC50 (KM12 [5]; [12]): > 100 µM
TGI (KM12 [5]; read-out: pTGI (converted)): 4.79 µM
growth at 0.1 µM (KM12 [6]): 95%
growth at 0.1 µM (SK-MEL-28 [7]): 100%
growth at 1 µM (KM12 [8]): 38%
growth at 0.1 µM (HCT-116): 99%
growth at 100 µM (NCI/ADR-RES): -22%
growth at 1 µM (SK-MEL-28 [9]): 82%
growth at 10 µM (TK-10): 23.4%
growth at 100 µM (786-0): -57%
growth at 100 µM (SNB-75 [10]): -17%
IC50 (OVCAR-3): 0.59 µM
GI50 (OVCAR-3; read-out: GI50): 0.502 µM
CC50 (OVCAR-3; [11]): > 100 µM
TGI (OVCAR-3; read-out: TGI): 45.7 µM
GI50 (OVCAR-3; read-out: pGI50 (converted)): 0.589 µM
CC50 (OVCAR-3; [12]): > 100 µM
TGI (OVCAR-3; read-out: pTGI (converted)): 4.57 µM
growth at 1 µM (SF-268): 79%
growth at 1 µM (U-251): 47%
growth at 0.01 µM (A549): 100%
